The text below walks through data of PubChem BioAssay (NCI).

Holding throughout (assay): NCI anticancer screen, dose series, 48 h
Test [1] relates to MCF7 breast.
Test [2] deals with DU-145 prostate.
Test [3] deals with BT-549 breast.
The subject of test [4] is HS 578T breast.
For test [5], the system named is T-47D breast.

Several values for one entry are separate records, joined by “and”; a condition that tells them apart may be missing. Equal values may be shown once.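 How tested: cells in 96-well plates exposed to compound for 48 hours at five concentrations. GI50 is the concentration that inhibits growth by half. Definition used: TGI = concentration required for complete inhibition of growth.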 A value given as a limit tells only on which side of the number the result lay.

As to `CC[C@H](CC#N)OC(=O)N[C@@H](C)c1cccc(NC(=O)Nc2ccc(-c3cnco3)c(OC)c2)c1`, the GI50 in test [1] is 0.0458 µM; in test [2] it was 0.0672 µM; in test [3], 0.238 µM; in test [4], 1.16 µM; in test [5], 0.165 µM. The TGI in test [1] is 18.2 µM; in test [2], 39.3 µM; in test [3], 34 µM; in test [4] it was above 51.6 µM; in test [5] it was 21.4 µM.

`COc1cc(-c2cn(-c3ccc(Cl)cc3)c(C)c2C(=O)C(F)(F)F)cc(OC)c1OC`: the GI50 in test [1] was 24.6 µM; in test [2], above 100 µM; in test [3], 46.8 µM; in test [4] it was above 100 µM; in test [5], 6.95 µM. Further, the TGI in test [1], in test [2], in test [3], in test [4] and in test [5] was above 100 µM each time.

Regarding `COc1ccc(-c2cncn2-c2ccc(OC)cc2)cc1`, the GI50 is 17.4 µM in test [1], 14.9 µM in test [2], 12.3 µM in test [3] and 17.5 µM in test [4]. Moreover, the TGI amounted to 41.2 µM in test [1], 32.5 µM in test [2], 32.5 µM in test [3] and 56 µM in test [4].

Consider `CCCCCCCCCCCC[n+]1ccc(CCCCCCCCC)cc1`, for which, in test [2], the GI50 was 1.37 µM and the TGI was found to be 2.75 µM. In test [5], the GI50 is 0.28 µM and the TGI was determined as 1.54 µM.

For `Cc1cc(C(C#N)c2ccc(Cl)cc2)c(Cl)cc1NC(=O)c1cc(I)cc(I)c1O` (stereo not given), the GI50 in test [1] was 6.58 µM and 15.7 µM; in test [2] it was 14.5 µM and 15.2 µM; in test [3] it was 4.03 µM and 8.64 µM; in test [4], 12 µM; in test [5], 19.1 µM and 15.2 µM. For the same compound, the TGI was 23.8 µM and 32.4 µM in test [1]; 28.7 µM and 29.1 µM in test [2]; 11.8 µM and 23.4 µM in test [3]; 34.4 µM in test [4]; 46.9 µM and 37 µM in test [5].

In the case of `Clc1nc(Cl)c2ncn(Cc3ccc(COc4cccc(OCc5ccc(Cn6cnc7c(Cl)nc(Cl)nc76)cc5)c4)cc3)c2n1`, the GI50 was 28.9 µM in test [1]; 18.5 µM in test [2]; 25.6 µM in test [3]; 54.1 µM in test [4]; 21.5 µM in test [5]. Besides, the TGI was above 100 µM in test [1]; 48.1 µM in test [2]; above 100 µM in test [3]; above 100 µM in test [4]; above 100 µM in test [5].

As to `Cc1ccc(C(O)c2cnc(C)n2Cc2ccccc2)cc1` (stereo not given), the TGI in test [1], in test [2], in test [3] and in test [4] was above 100 µM each time.

With `O=C1/C(=C/c2ccc(O)cc2)COc2ccc(-c3ccccc3)cc21`, the GI50 in test [1] was 2.8 µM; in test [2] it was 4.09 µM; in test [3], 2.64 µM; in test [4], 3.79 µM; in test [5], 3.76 µM. The TGI in test [1] was 12.4 µM; in test [2] it was 14.6 µM; in test [3], 13 µM; in test [4] it was 24.3 µM; in test [5], 25.6 µM.

In the case of `C=C(C)C(=O)O[C@H]1[C@H]2[C@H](OC(=O)[C@H]2C)[C@H](O)[C@@H](C)[C@@H]2C=CC(=O)[C@]21C`, the TGI worked out at 15.5 µM in test [1]; 12.9 µM in test [2]; 15.5 µM in test [3]; 32.5 µM in test [4]; 12.5 µM in test [5].

On to `CCCCN(Cc1ccc(F)cc1)c1ccc(CO)c(Cl)c1`, for which the GI50 in test [1] is 2.3 µM; in test [2], 17 µM; in test [3] it was 19.1 µM; in test [4] it was 17.7 µM; in test [5] it was 1.27 µM. In addition, the TGI in test [1] was determined as 15 µM; in test [2], 31.3 µM; in test [3], 34.6 µM; in test [4], 40.9 µM; in test [5], 10.2 µM.

For `COc1cc[nH]c1/C=C1\C(=O)Nc2ccc(F)c(I)c21`, the GI50 in test [1], in test [2], in test [3], in test [4] and in test [5] was above 25 µM throughout. In addition, the TGI in test [1], in test [2], in test [3], in test [4] and in test [5] was above 25 µM throughout.

In the case of `CCCCn1cnc2c(SC)ncnc21`, the TGI in test [1], in test [2], in test [3], in test [4] and in test [5] was above 100 µM each time.

In the case of `CN(CCOc1ccc(C#N)cc1)CCOc1ccc(C#N)cc1`, the GI50 is above 100 µM in test [1]; 90 µM in test [2]; 20.5 µM in test [3]; 13.8 µM in test [4]; above 100 µM in test [5]. In addition, the TGI in test [1], in test [2], in test [3], in test [4] and in test [5] was above 100 µM each time.

On to `CN(C)CCOc1ccc2c(c1)C/C(=C/c1ncc([N+](=O)[O-])n1C)C2=O`, for which the TGI in test [1] is 7.11 µM; in test [2], 14 µM; in test [3], 3.74 µM; in test [4] it was above 49.6 µM; in test [5], 32.8 µM.

Regarding `O=C(CCl)N1c2ccccc2Sc2c1ccc1ccccc21`, the GI50 in test [1] is 2.52 µM; in test [2] it was 3.32 µM; in test [3] it was 1.3 µM; in test [4] it was 4.17 µM; in test [5] it was 2.19 µM. The TGI is 6.47 µM in test [1]; 10.8 µM in test [2]; 2.63 µM in test [3]; 43.9 µM in test [4]; 6.07 µM in test [5].

Turning to `CC(C)NC(=O)OCCS(=O)c1c(Cl)c(Cl)nn1C` (stereo not given), the TGI in test [1], in test [2], in test [4] and in test [5] was above 100 µM each time.
